Values of other authors, collected in patent publication US7527814B2, “Process for the isolation of calliterpenone” (Council of Scientific and Industrial Research, priority 2006, dated 2009).

Key:
plant growth = conditions: if used in a particular method
[1] = tested on: growth retardant effects produced by allelochemicals; conditions: Singh et al., U.S. Pat. No. 6,673,749 (2004)

## CC1(C)C(=O)CC[C@@]2(C)[C@H]1CC[C@@]13C[C@H](CC[C@@H]12)[C@@](O)(CO)C3 [calliterpenone, 16α,17 dihydroxy-3-oxo phyllocladane]
Plant growth
  plant growth promoting effect compared with GA3: better plant growth promoting effect than GA3
[1]
  effect on growth retardant effects produced by allelochemicals: antagonizes the growth retardant effects produced by allelochemicals
